Patent US20100249064A1, “METHODS AND COMPOSITIONS FOR TREATING DISEASES AND CONDITIONS INVOLVING HIGHER MOLECULAR WEIGHT HYALURONAN” (University of Chicago, priority 2007, published 2010)
“Also recorded” adds a separate entry of the source.

Key:
MARCKS and NHE1 = experiment: LPS-induced phosphorylation of MARCKS and NHE1 (immunoprecipitation/immunoblot); assay type: cell-based, human; details: LPS 1 μg/ml, 4 hours, HMW-HA 100 nM or Y-27632 500 nM
[1] = system: LPS-induced murine lung vascular permeability; experiment: LPS-induced murine lung vascular permeability, bronchioalveolar lavage (BAL) protein and cytokines; assay type: in vivo, mouse
Description: Animal Preparation and Treatment—Male C57BL/6J and CD44 knockout mice (8-10 weeks, Jackson Laboratories, Bar Harbor, Me.) were anesthetized with intraperitoneal ketamine (150 mg/kg) and acetylpromazine (15 mg/kg) according to approved protocols. LPS (2.5 mg/kg) or saline (control) were instilled intratracheally and four hours later, HGF (50 μg/kg) or saline control delivered intravenously through the internal jugular vein. The animals were allowed to recover for 24 h followed by bronchioalveolar lavage protein analysis and/or lung immunohistochemistry.
Determination of Bronchioalveolar Lavage Protein Concentration—Bronchioalveolar lavage (BAL) was performed by an intratracheal injection of 1 cc of Hank's balanced salt solution followed by gentle aspiration. The recovered fluid was processed for protein concentration (BCA Protein Assay Kit; Pierce Chemical Co., Rockford, Ill.) as described (Su et al., 2004).
Animals. Male C57BL/6J mice, CD44 knockout mice, Caveolin-1 knockout mice (8-10 weeks, Jackson Laboratories, Bar Harbor, Me.) were anesthetized with intraperitoneal ketamine (150 mg/kg) and acetylpromazine (15 mg/kg) according to approved protocols. LPS (2.5 mg/kg) or saline (control) were instilled intratracheally and four hours later, HMW-HA (1.5 mg/kg) or saline control delivered intravenously through the internal jugular vein. The animals were allowed to recover for 24 hours followed by bronchioalveolar lavage protein analysis and/or lung immunohistochemistry.
Determination of protein concentration. Total protein concentration. TGF-alpha concentration. TGF-beta1 concentration. Bronchioalveolar lavage (BAL) was performed by an intratracheal injection of 1 cc of Hank's balanced salt solution followed by gentle aspiration. The recovered fluid was processed for protein concentration (BCA Protein Assay Kit; Pierce Chemical Co., Rockford, Ill.) or used to determine TNF-α and TGF-β1 concentrations using quantitative sandwich enzyme immunoassays (R & D Systems, Minneapolis, Minn.).
Animal Preparation and Treatment. Male C57BL/6J, B6129N2, CD44^−/− or caveolin-1^−/− mice (8-10 weeks, Jackson Laboratories, Bar Harbor, Me.) were anesthetized with intraperitoneal ketamine (150 mg/kg) and acetylpromazine (15 mg/kg) before exposure of the right internal jugular vein via neck incision. LPS (2.5 mg/kg) or water (control) were instilled intratracheally. Four hours later, mice receive high MW HA (1.5 mg/kg) or water control through the internal jugular vein. The animals were allowed to recover for 24 hours after LPS before bronchioalveolar lavage protein and cytokine concentration and/or lung immunohistochemistry/immunoblot analysis (Peng et al., 2004).
Determination of Bronchoavleolar Lavage Protein and Cytokine Concentration. Bronchioalveolar lavage (BAL) was performed by an intratracheal injection of 1 cc of Hank's balanced salt solution followed by gentle aspiration. The recovered fluid was processed for protein concentration (BCA Protein Assay Kit; Pierce Chemical Co., Rockford, Ill.) (Peng et. al., 2004). Cytokines (IL-6, TNFalpha) were measured using a Quantikine sandwich ELISA kit (R & D Systems).

Rac1 = Rac1 activation assay, HGF; assay type: cell-based, human; details: HGF 25 ng/ml
Description: Rac1 Activation Assay—Rac1 activity assays were performed as described (Ren et al., 1999) in human lung EC.

[2] = system: c-Met, CD44v10, Tiam1, cortactin, dynamin 2 in CEM; experiment: HGF-induced recruitment of proteins to caveolin-enriched microdomains (CEM); assay type: cell-based, human
Description: Caveolin-enriched microdomain (CEM) isolation—Caveolin-enriched microdomain known as detergent-resistant membranes (DRM) or lipid rafts were isolated from HPMVEC (Singleton et al., 2006; Singleton et al., 2005). Triton X-100-insoluble materials were mixed with 0.6 ml of cold 60% Optiprep™ and then overlaid with 0.6 ml of 40%-20% Optiprep™. Gradients were centrifuged (35,000 rpm) in SW60 rotor for 12 h at 4° C. and different fractions were collected and analyzed.
Immunoprecipitation and Immunoblotting—Cellular materials from treated or untreated HPMVEC were incubated with IP buffer (50 mM HEPES (pH 7.5), 150 mM NaCl, 20 mM MgCl2, 1% Nonidet P-40 (NP-40), 0.4 mM Na3VO4, 40 mM NaF, 50 μM okadaic acid, 0.2 mM phenylmethylsulfonyl fluoride, 1:250 dilution of Calbiochem protease inhibitor mixture 3). Following immunoprecipitation with either anti-CD44 or anti-dynamin 2 IgG, the samples were subjected to SDS-PAGE in 4-15% polyacrylamide gels, transferred onto Immobilon™ membranes, and developed with specific primary and secondary antibodies. Enhanced chemiluminescence (Amersham Biosciences) was used to visualize immunoreactive bands. In some instances, standardized average grey values (S.A.G.V., processed from ImageQuant™ software (Amersham Biosciences)) were obtained for immunoreactive bands for quantification.
Determination of Complex Formation between CD44 and c-Met—Solubilized CEM proteins in IP buffer (see above) were immunoprecipitated with rat anti-CD44 antibody or anti-c-Met antibody followed by SDS-PAGE in 4-15% polyacrylamide gels and transfer onto Immobilon™ membranes (Millipore Corp., Bedford, Mass.). Nonspecific sites were blocked with 5% bovine serum albumin, and then the blots were incubated with either rat anti-CD44 antibody or mouse anti-c-Met antibody followed by incubation with horseradish peroxidase (HRP)-labeled goat anti-mouse or goat anti-rat IgG. Visualization of immunoreactive bands was achieved using enhanced chemiluminescence (Amersham Biosciences).

[3] = target: Hyaluronic Acid Binding Protease 2 (HABP2), human (human, UniProt Q14520 24-560, limits assumed); experiment: anti-HABP2 immunoprecipitation of EC media, non-reducing SDS-PAGE, immunoblot with anti-HABP2 or anti-C1INH
Sequence of Hyaluronic Acid Binding Protease 2 (HABP2), human (Q14520 24-560 limits assumed): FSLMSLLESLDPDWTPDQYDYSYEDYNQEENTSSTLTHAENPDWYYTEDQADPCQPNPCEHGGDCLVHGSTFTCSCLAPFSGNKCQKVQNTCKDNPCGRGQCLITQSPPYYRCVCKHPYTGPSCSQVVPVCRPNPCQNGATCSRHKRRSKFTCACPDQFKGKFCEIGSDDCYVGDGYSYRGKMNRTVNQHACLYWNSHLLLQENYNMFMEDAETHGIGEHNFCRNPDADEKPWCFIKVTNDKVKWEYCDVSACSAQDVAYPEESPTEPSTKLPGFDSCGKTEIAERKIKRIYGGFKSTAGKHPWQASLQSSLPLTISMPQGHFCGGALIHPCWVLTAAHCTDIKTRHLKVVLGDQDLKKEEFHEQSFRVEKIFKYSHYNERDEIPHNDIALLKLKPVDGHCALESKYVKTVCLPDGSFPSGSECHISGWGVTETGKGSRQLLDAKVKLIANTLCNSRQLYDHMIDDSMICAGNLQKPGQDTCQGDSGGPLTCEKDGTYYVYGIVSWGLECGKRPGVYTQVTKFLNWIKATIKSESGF

Human pulmonary EC = experiment: TER, HABP2/C1INH regulation of EC barrier function (Examples 3 and 6); assay type: cell-based; details: purified C1INH; 1.0 μg/ml LPS, 100 nM HA, 10 μg/ml HABP2
Description: Measurement of transendothelial monolayer electrical resistance (TER). EC were grown to confluence in polycarbonate wells containing evaporated gold microelectrodes, and TER measurements performed using an electrical cell-substrate impedance sensing system obtained from Applied Biophysics (Troy, N.Y.) as previously described in detail (Garcia et al. 2001). TER values from each microelectrode were pooled at discrete time points and plotted versus time as the mean±S.E.
Determination of EC barrier function. Human pulmonary endothelial cells were grown to confluence in polycarbonate wells containing evaporated gold microelectrodes (surface area, 10-3 cm^2) in series with a large gold counter electrode (1 cm^2) connected to a phase-sensitive lock-in amplifier as described previously. Measurements of transendothelial electrical resistance (TER) were performed using an electrical cell-substrate impedance sensing system (ECIS) (Applied BioPhysics Inc.). Briefly, current was applied across the electrodes by a 4,000-Hz AC voltage source with amplitude of 1 V in series with a 1 MS/resistance to approximate a constant current source (˜1 μA). The in-phase and out-of-phase voltages between the electrodes were monitored in real time with the lock-in amplifier and subsequently converted to scalar measurements of transendothelial impedance, of which resistance was the primary focus. TER was monitored for 30 minutes to establish a baseline resistance (R0) which, for pulmonary endothelium, was typically between 8 to 12×10^3Ω (wells with R0<7×10^3Ω were rejected). As cells adhere and spread out on the microelectrode, TER increases (maximal at confluence), whereas cell retraction, rounding, or loss of adhesion was reflected by a decrease in TER. These measurements provide a highly sensitive biophysical assay that indicates the state of cell shape and focal adhesion. Values from each microelectrode were pooled at discrete time points and plotted versus time as the mean±SE of the mean (Garcia et al., 2001).

[4] = target: T1, HABP2, murine (mouse lung) (mouse, UniProt Q8K0D2 24-558, limits assumed); experiment: anti-HABP2 immunoprecipitation of mouse lung homogenates, non-reducing SDS-PAGE, immunoblot
T1 construct: Immunoprecipitated with anti-HABP2 antibody from mouse lung homogenates; also called murine HABP2
T1 sequence (Q8K0D2 24-558 limits assumed): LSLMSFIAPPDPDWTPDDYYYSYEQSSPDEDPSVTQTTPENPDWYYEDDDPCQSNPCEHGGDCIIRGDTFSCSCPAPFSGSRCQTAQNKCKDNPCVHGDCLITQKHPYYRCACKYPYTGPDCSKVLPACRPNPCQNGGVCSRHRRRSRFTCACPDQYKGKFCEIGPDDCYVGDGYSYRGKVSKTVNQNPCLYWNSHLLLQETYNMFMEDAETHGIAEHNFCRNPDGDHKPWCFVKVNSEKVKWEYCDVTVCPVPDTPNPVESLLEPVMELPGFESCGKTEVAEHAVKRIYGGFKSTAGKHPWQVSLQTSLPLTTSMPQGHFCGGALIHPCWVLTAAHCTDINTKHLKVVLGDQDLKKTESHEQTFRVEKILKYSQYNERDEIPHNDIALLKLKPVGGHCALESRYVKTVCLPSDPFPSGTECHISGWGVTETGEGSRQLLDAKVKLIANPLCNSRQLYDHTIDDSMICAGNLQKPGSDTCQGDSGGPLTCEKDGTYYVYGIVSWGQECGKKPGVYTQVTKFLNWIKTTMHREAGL
Description: FIG. 24 Analysis of HABP2 and C1INH expression and complex formation in murine lungs with or without LPS treatment and effective silencing of HABP2 expression in murine lungs. Panel A—Male B6129N2 mice (8-10 weeks) were anesthetized with intraperitoneal ketamine (150 mg/kg) and acetylpromazine (15 mg/kg) before exposure of the right internal jugular vein via neck incision. LPS (2.5 mg/kg) or water (control) were instilled […]. The animals were allowed to recover for 24 hours after LPS before lung extraction. Extracted lungs were homogenized, N=6 samples per condition were pooled, run on SDS-PAGE and immunoblotted with anti-HABP2 (1), anti-C1INH (2) or anti-actin (3) antibody. Panel B—Homogenized lung samples as described in Panel A were immunoprecipitated with anti-HABP2 antibody, run on non-reducing SDS-PAGE and immunoblotted with either anti-HABP2 or anti-C1INH antibody. The upper arrow indicates an SDS-stable complex between HABP2 and C1INH. The lower arrow indicates the free (active) faun of HABP2. Panel C—Male B6129N2 mice (8-10 weeks) were anesthetized with intraperitoneal ketamine (150 mg/kg) and acetylpromazine (15 mg/kg) before exposure of the right internal jugular vein via neck incision. 10 mg/kg in vivo stable scramble siRNA (control) or HABP2 siRNA (Dharmacon) were instilled intravenously through the internal jugular vein. […]

Molecule: C[C@@H](N)[C@H]1CC[C@H](C(=O)Nc2ccncc2)CC1 [Y-27632, reference compound]
- LPS-induced phosphorylation of MARCKS and NHE1 (MARCKS and NHE1): inhibit LPS-induced phosphorylation of MARCKS and NHE1

Molecule: HGF: Recombinant human hepatocyte growth factor (HGF), Chemicon International
- protective effect on LPS-induced pulmonary hyper-permeability (BAL) in knockout mice ([1]; CD44 knockout (and, where stated, Caveolin-1 knockout) mice, same regimen): markedly attenuated in the CD44 knockout mouse; also recorded: significant difference (p<0.05) between the wildtype and CD44 knockout mouse HGF+LPS treatment
- LPS-induced pulmonary hyper-permeability (BAL protein concentration) ([1]; wildtype C57BL/6J mice, LPS 2.5 mg/kg intratracheally, HMW-HA 1.5 mg/kg or HGF 50 μg/kg intravenously 4 hours after LPS, BAL at 24 hours): pulmonary hyper-permeability was attenuated; also recorded: significant difference (p<0.05) between LPS treatment and HGF+LPS treatment
- Rac1 activation (Rac1): induced Rac1 activation
- recruitment of Tiam1, cortactin and dynamin 2 to CEM ([2]; HGF 25 ng/ml): increased recruitment to these caveolin-enriched plasma membrane microdomain structures
- recruitment of total CD44v10 into CD44s-containing CEM ([2]; HGF 25 ng/ml): ~70%
- recruitment of total c-Met into CD44s-containing CEM ([2]; HGF 25 ng/ml): ~55%
- association of c-Met with CD44v10 in CEM ([2]; HGF 25 ng/ml, 5, 15 or 30 min): induce an association that is time-dependent of c-Met with CD44v10

B1: C1INH, human (other, UniProt P05155 23-500, looked up)
chain: NPNATSSSSQDPESLQDRGEGKVATTVISKMLFVEPILEVSSLPTTNSTTNSATKITANTTDEPTTQPTTEPTTQPTIQPTQPTTQLPTDSPTQPTTGSFCPGPVTLCSDLESHSTEAVLGDALVDFSLKLYHAFSAMKKVETNMAFSPFSIASLLTQVLLGAGENTKTNLESILSYPKDFTCVHQALKGFTTKGVTSVSQIFHSPDLAIRDTFVNASRTLYSSSPRVLSNNSDANLELINTWVAKNTNNKISRLLDSLPSDTRLVLLNAIYLSAKWKTTFDPKKTRMEPFHFKNSVIKVPMMNSKKYPVAHFIDQTLKAKVGQLQLSHNLSLVILVPQNLKHRLEDMEQALSPSVFKAIMEKLEMSKFQPTLLTLPRIKVTTSQDMLSIMEKLEFFDFSYDLNLCGLTEDPDLQVSAMQHQTVLELTETGVEAAAASAISVARTLLVFEVQQPFLFVLWDQQHKFPVFMGRVYDPRA
notes: also called C1NH; C1 NH
- binding result [3]: binds

B2: C1INH, murine (mouse lung) (other, UniProt P97290 23-504, looked up)
chain: DPEATSHSTQDPLEAQAKSRESFPERDDSWSPPEPTVLPSTWPTTSVAITITNDTMGKVANESFSQHSQPAAQLPTDSPGQPPLNSSSQPSTASDLPTQATTEPFCPEPLAQCSDSDRDSSEAKLSEALTDFSVKLYHAFSATKMAKTNMAFSPFSIASLLTQVLLGAGDSTKSNLESILSYPKDFACVHQALKGFSSKGVTSVSQIFHSPDLAIRDTYVNASQSLYGSSPRVLGPDSAANLELINTWVAENTNHKIRKLLDSLPSDTCLVLLNAVYLSAKWKITFEPKKMMAPFFYKNSMIKVPMMSSVKYPVAQFDDHTLKAKVGQLQLSHNLSFVIVVPVFPKHQLKDVEKALNPTVFKAIMKKLELSKFLPTYLTMPHIKVKSSQDMLSVMEKLEFFDFTYDLNLCGLTEDPDLQVSAMKHETVLELTESGVEAAAASAISFGRSLPIFEVQRPFLFLLWDQQHRFPVFMGRVYDPRG
notes: Detected with anti-C1INH antibody in anti-HABP2 immunoprecipitates of mouse lung homogenates
- effect on EC barrier changes (TER) induced by LPS, LMW-HA, HABP2 and HMW-HA (Human pulmonary EC): inhibited the EC barrier disrupting effects of LPS, LMW-HA and HABP2 while enhancing the barrier protective effects of HMW-HA
- binding result [4]: binds
